In US20070142384A1, “Compounds, pharmaceutical compositions and methods for use in treating metabolic disorders” (AMGEN INC., priority 2004, published 2007):

Molecular target: T1, human GPR40 (Homo sapiens, UniProt O14842)
T1 construct: expressed in transfected cells; host or cells: CHO cells, transient co-transfection with Aequorin expression vector (Euroscreen)
Test: Cell-based aequorin assay using human GPR40
Conditions: activation of human GPR40; CHO cells transfected with GPR40 and Aequorin expression vectors; aequorin luminescence, area-under-curve 2-20 seconds; 0.01% BSA or 0.625% HSA; read-out: Relative EC50
Procedure: A cell-based aequorin assay may be employed to characterize the modulatory activity of compounds on the GPR40 signaling pathway. In an exemplary assay, CHO cells are transfected in a 15 cm plated containing 14 million cells with 5 μg of GPR40 expression vector and 5 μg of Aequorin expression vector (Euroscreen) using Lipofectamine 2000 (Invitrogen). […] Trypsinization is halted with 28 mL of Hanks Buffered Salt Solution containing 20 mM Hepes (H/HBSS) and 0.01% fatty acid-free bovine serum albumin (BSA) or 0.625% fatty acid-free human serum albumin (HSA). […] Cells are gently mixed every 15 minutes. Compounds are dissolved in dimethyl sulfoxide for preparation of 10 mM stock solutions. Compounds are diluted in H/HBSS containing either 0.01% BSA or 0.625% HSA. Serial dilutions of the test compounds are prepared to determine dose response.
Aequorin luminescence measurements are made using an EG&G Berthold 96-well luminometer and the response is measured over a 20 second interval after cells and compounds were mixed. […] The EC50 (effective concentration to reach 50% maximal response) is determined from the dose response plot. […]

T1 sequence (O14842 whole entry): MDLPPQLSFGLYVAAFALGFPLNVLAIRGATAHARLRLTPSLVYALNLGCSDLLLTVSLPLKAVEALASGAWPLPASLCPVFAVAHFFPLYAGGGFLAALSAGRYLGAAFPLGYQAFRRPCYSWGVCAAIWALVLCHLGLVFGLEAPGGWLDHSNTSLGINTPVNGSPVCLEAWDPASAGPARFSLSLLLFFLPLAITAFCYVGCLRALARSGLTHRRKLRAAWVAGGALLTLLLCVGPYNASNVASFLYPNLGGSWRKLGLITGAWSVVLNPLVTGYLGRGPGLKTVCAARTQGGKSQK

EC50: 1 to 10 µM
SMILES: O=C(O)CC(c1ccc(OCc2cccc(-c3ccc(C(F)(F)F)cc3)c2)cc1)C1CC1 (stereo not shown) [Compound 91]
